Reference: patent US9096643B2, “Cell-protective peptides and uses thereof” (priority 2010, dated 2015)
No end group written: not given here.

Key:
[1] = test system: neonatal rat CMs (heart cells); experiment: Heart cell attachment on peptide-modified Az-chitosan coated coverslips (brightfield cell counts); assay type: cell-based, rat (Sprague-Dawley); conditions: coated glass coverslips, 1, 3 and 5 days of incubation, FIG. 1
Method: Neonatal (1 to 2 day-old) Sprague-Dawley rats were euthanized according to the procedure approved by the University of Toronto Committee on Animal Care. […] The supernatant from 5 collagenase digests of the tissues was collected and centrifuged at 750 rpm (94 g) for 4 min, resuspended in culture medium and pre-plated into T75 flasks (Falcon) for 1 hour to separate the non-adherent cells (enriched CMs) from the adherent cells (non-myocytes). The enriched CMs were used in the studies. The CM culture medium consisted of Dulbecco's Modified Eagle Medium (DMEM) with 4.5 g/L glucose, 4 mM L-glutamine, 10% certified fetal bovine serum (FBS), 100 U/mL penicillin, 100 μg/mL streptomycin, and 10 mM 4-2-hydroxyethyl-1-piperazineethanesulfonic acid buffer (HEPES, Gibco/Invitrogen).
The surfaces used for microscopy analysis were created on circular 12 mm diameter glass coverslips (VWR). These were plasma treated (WS-400BZ-6NPP/Lite, Laurell Technologies) for 30 s. […]
The day before cells were ready to be seeded, the surfaces in the 12-well plates were sterilized by germicidal UV illumination overnight. […]
Brightfield images were taken with 10× magnification of surfaces with cells (N=3) to visualize the morphology and cell attachment (IX81, Olympus). […] The number of cells was then counted using the cell counting plug-in on ImageJ (NIH version 1.36b).

[2] = test system: neonatal rat CMs (heart cells); experiment: Apo-ONE caspase 3/7 assay after serum starvation and taxol on coated surfaces; assay type: cell-based, rat (Sprague-Dawley); conditions: serum-starved, overnight taxol, vs control surfaces, FIG. 4
Method: Glass coverslips were coated with Az-chitosan, or Az-chitosan conjugated with QHREDGS, RGDS, or a scrambled peptide (DGQESHR). The cells were then seeded (100,000 cells in 50 μL of CM media; seeding density of 88 cells/mm^2) on each surface (N=3), including plain glass as a control, for 15 min. The cells were then supplemented with serum-free media. After 19 hours, 5 μL of taxol (paclitaxel, Sigma), dissolved at 100 μM in DMSO, was added and maintained for 17 hours and 45 min at which time caspase assay was performed. One set of glass surfaces was not exposed to taxol treatment as a negative control.
The Apo-ONE caspase assay (Promega) was performed according to manufacturer's protocol. The cells were permeabilized and lyzed to release the caspases, which are activated in cells undergoing apoptosis. The assay contains rhodamine 110, bis-(N-CBZ-L-aspartyl-L-glutamyl-L-valyl-L-aspartic acid amide; Z-DEVD-R110). Caspase 3 and 7 are known to cleave the peptide DEVD and the leaving group, rhodamine 110 becomes fluorescent when excited with fluorescent light. The amount of fluorescence is proportional to the level of caspase 3/7 activity in the sample. According to the manufacturer's protocol, the caspase substrate was dissolved in a buffer at 1:100. […] The fluorescence of the buffer was read in the fluorometer at an excitation of 485 nm and a cut off of 520 nm. […]

[3] = test system: Rat neonatal cardiomyocytes; experiment: Doxorubicin induced apoptosis and caspase activation (Western blot); assay type: cell-based; conditions: 1 d, doses as low as 5 μM, FIG. 5B,C
Method: Rat neonatal cardiomyocytes were given doxorubicin (Dox) to induce apoptosis and PBS or peptide QHREDGS (1 d), Western blotting was conducted and levels assessed via densitometric analysis (Scion Image software).

human iPS cells = experiment: EB differentiation of treated iPS cells; assay type: cell-based; conditions: after 5 passages of treatment, EB protocol
Method: Following 5 passages in continuous treatment, iPS cells were collected and differentiated into embryoid bodies (EB) containing cells of all three germ layers as described Itskovitz-Eldor, J. et al. Mol. Med. 6, 88-95 (2000). For further differentiation and analysis, EBs were plated onto 0.2% gelatin coated plates for another 10 days for attachment and fixed in 4% para-formaldehyde (Sigma) for immunohistochemistry.

[4] = test system: Human ESC-derived cardiac cells (Hes2); experiment: Caspase 3/7 assay of human ESC-derived cardiac cells; assay type: cell-based; conditions: 50 μM, FIG. 20
Method: Human ESC-derived cardiac cell culture, were derived from Day 20 EBs, consisting of greater than 50% cardiomyocytes obtained by directed differentiation of human ES (Hes2) cells as described by Yang et al. (Nature 453, 524-528 (2008)). EBs were dissociated using Collagenase I (Invitrogen) for 2 hrs and 0.05% Trypsin-EDTA (Invitrogen) for 5 min and plated at 40000 cells/cm^2 onto 0.2% gelatin-coated plates in Stempro 34 medium supplemented with VEGF (10 ng/ml) and DKK1 (150 ng/ml). Cells were cultured in the presence of 50 μM QHREDGS, 50 μM DGQESHR (Biomatik) or PBS until they formed a beating monolayer, around 10 days. Peptides were replenished during media changes every 3 days. 100 μM H2O2 (Sigma, dissolved in PBS) was added to culture media for 10 min, washed, and analyzed immediately for CFDA-Live/PI-Dead. Live cells were counted using the cell counter plug in for ImageJ. 0.5 μM or 2.5 μM taxol (Sigma, dissolved in DMSO) was added to culture media for 24 hrs, and the extent of apoptosis was analyzed immediately using the Apo-ONE Homogeneous Caspase Assay (Promega), or TUNEL assay (Roche) as described above. A PBS control was used for H2O2 and DMSO control was used for taxol.

Substance | cell adhesion / cell attachment to coated surface [1] | caspase-3/7 activation [2] | activation of caspases-3 and -6 [3] | differentiation into neural, mesodermal and endodermal cells (human iPS cells) | reduction of basal apoptosis levels in cardiac cells (Caspase 3/7) [4] [fold]
Az-chitosan-QHREDGS: QHREDGS peptide covalently conjugated to Az-chitosan by EDC chemistry (also: covalently conjugated to Az-chitosan by EDC chemistry, site not given here) | significantly greater cell adhesion | significantly lower levels of caspase-3/7 activation | – | – | –
QHREDGS (angiopoietin 1 peptide) | – | – | blocked | retained the competence to differentiate | 2
